Laboratory results as given in the supplement of paper PMC10307832.

How the values were obtained:
Experiment in all cases: relative viability (nuclei count vs DMSO), 5 days (fraction); higher = more cells survive
Bortezomib + Palbociclib = compound: CC(C)C[C@H](NC(=O)[C@H](Cc1ccccc1)NC(=O)c1cnccn1)B(O)O [Bortezomib] + CC(=O)c1c(C)c2cnc(Nc3ccc(N4CCNCC4)cn3)nc2n(C2CCCC2)c1=O [Palbociclib] (partner 0.5 µM)
In short: (§1)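 Each reported value is a median over duplicate plates. It expresses relative viability: treated-well nuclei count divided by vehicle-well nuclei count. Lung cancer cell lines in 1536-well plates were dosed by pin tool a day after seeding, alone with one drug or with a fixed anchor-drug dose plus five library-drug doses (not always all listed) in √10 steps, and nuclei were counted after 5 days.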

[1] = compound: CC1=CC(=NN1)NC2=CC(=NC(=N2)/C=C/C3=CC=CC=C3)N4CCN(CC4)C + C[C@@H](Oc1cc(-c2cnn(C3CCNCC3)c2)cnc1N)c1c(Cl)ccc(F)c1Cl [Crizotinib] (partner 1 µM)
In short: as §1

[2] = compound: CC1=CC(=NN1)NC2=CC(=NC(=N2)/C=C/C3=CC=CC=C3)N4CCN(CC4)C + C[C@]1(O)C[C@@H](c2nc(-c3ccc4ccc(-c5ccccc5)nc4c3)c3c(N)nccn32)C1 [Linsitinib] (partner 1 µM)
In short: as §1

Obatoclax + Palbociclib = compound: COC1=CC(c2cc3ccccc3[nH]2)=N/C1=C\c1[nH]c(C)cc1C [Obatoclax] + CC(=O)c1c(C)c2cnc(Nc3ccc(N4CCNCC4)cn3)nc2n(C2CCCC2)c1=O [Palbociclib] (partner 0.5 µM)
In short: as §1

201T was tested, and the relative viability (Bortezomib + Palbociclib; first compound 0.0002 µM) was 0.339, the relative viability (Bortezomib + Palbociclib; first compound 0.000632 µM) was 0.367 and the relative viability (Bortezomib + Palbociclib; first compound 0.002 µM) was 0.37. It also gave a relative viability (Bortezomib + Palbociclib; first compound 0.006325 µM) of 0.33, a relative viability (Bortezomib + Palbociclib; first compound 0.02 µM) of 0.218 and a relative viability ([1]; first compound 0.08 µM) of 1.01. The relative viability ([1]; first compound 0.253 µM) was 1.07, the relative viability ([1]; first compound 0.8 µM) was 0.965 and the relative viability ([1]; first compound 2.53 µM) was 0.982. It also gave a relative viability ([1]; first compound 8 µM) of 0.786, a relative viability ([2]; first compound 0.08 µM) of 1.02 and a relative viability ([2]; first compound 0.253 µM) of 1.07. The relative viability ([2]; first compound 0.8 µM) was 1, the relative viability ([2]; first compound 2.53 µM) was 0.897 and the relative viability ([2]; first compound 8 µM) was 0.819. The relative viability (Obatoclax + Palbociclib; first compound 0.01 µM) was 0.382, the relative viability (Obatoclax + Palbociclib; first compound 0.03162 µM) was 0.363 and the relative viability (Obatoclax + Palbociclib; first compound 0.1 µM) was 0.348. The relative viability (Obatoclax + Palbociclib; first compound 0.3162 µM) was 0.348 and the relative viability (Obatoclax + Palbociclib; first compound 1 µM) was 0.357.
Work on A549 yielded a relative viability ([1]; first compound 0.08 µM) of 0.873, a relative viability ([1]; first compound 0.253 µM) of 0.537 and a relative viability ([1]; first compound 0.8 µM) of 0.257. It also gave a relative viability ([1]; first compound 2.53 µM) of 0.112, a relative viability ([1]; first compound 8 µM) of 0.0338 and a relative viability ([2]; first compound 0.08 µM) of 0.538. For the same cell line, the relative viability ([2]; first compound 0.253 µM) was 0.689, the relative viability ([2]; first compound 0.8 µM) was 0.481 and the relative viability ([2]; first compound 2.53 µM) was 0.275. The relative viability ([2]; first compound 8 µM) was 0.0279.
For A-427, the relative viability (Bortezomib + Palbociclib; first compound 0.0002 µM) was 0.508, the relative viability (Bortezomib + Palbociclib; first compound 0.000632 µM) was 0.469 and the relative viability (Bortezomib + Palbociclib; first compound 0.002 µM) was 0.53. For the same cell line, the relative viability (Bortezomib + Palbociclib; first compound 0.006325 µM) was 0.272, the relative viability (Bortezomib + Palbociclib; first compound 0.02 µM) was 0.169 and the relative viability ([1]; first compound 0.08 µM) was 0.878. It also gave a relative viability ([1]; first compound 0.253 µM) of 0.878, a relative viability ([1]; first compound 0.8 µM) of 0.937 and a relative viability ([1]; first compound 2.53 µM) of 0.399. The relative viability ([1]; first compound 8 µM) was 0.0861, the relative viability ([2]; first compound 0.08 µM) was 1.2 and the relative viability ([2]; first compound 0.253 µM) was 1.16. For the same cell line, the relative viability ([2]; first compound 0.8 µM) was 1.09, the relative viability ([2]; first compound 2.53 µM) was 0.87 and the relative viability ([2]; first compound 8 µM) was 0.305. It also gave a relative viability (Obatoclax + Palbociclib; first compound 0.01 µM) of 0.54, a relative viability (Obatoclax + Palbociclib; first compound 0.03162 µM) of 0.511 and a relative viability (Obatoclax + Palbociclib; first compound 0.1 µM) of 0.419. For the same cell line, the relative viability (Obatoclax + Palbociclib; first compound 0.3162 µM) was 0.517 and the relative viability (Obatoclax + Palbociclib; first compound 1 µM) was 0.462.
With ABC-1 the relative viability (Bortezomib + Palbociclib; first compound 0.0002 µM) was 0.619, the relative viability (Bortezomib + Palbociclib; first compound 0.000632 µM) was 0.709 and the relative viability (Bortezomib + Palbociclib; first compound 0.002 µM) was 0.269. For the same cell line, the relative viability (Bortezomib + Palbociclib; first compound 0.006325 µM) was 0.229, the relative viability (Bortezomib + Palbociclib; first compound 0.02 µM) was 0.328 and the relative viability ([1]; first compound 0.08 µM) was 0.866. The relative viability ([1]; first compound 0.253 µM) was 1.25, the relative viability ([1]; first compound 0.8 µM) was 0.562 and the relative viability ([1]; first compound 2.53 µM) was 0.182. The relative viability ([1]; first compound 8 µM) was 0.169, the relative viability ([2]; first compound 0.08 µM) was 0.787 and the relative viability ([2]; first compound 0.253 µM) was 0.983. The relative viability ([2]; first compound 0.8 µM) was 0.724, the relative viability ([2]; first compound 2.53 µM) was 0.581 and the relative viability ([2]; first compound 8 µM) was 0.173. It also gave a relative viability (Obatoclax + Palbociclib; first compound 0.01 µM) of 0.838, a relative viability (Obatoclax + Palbociclib; first compound 0.03162 µM) of 0.717 and a relative viability (Obatoclax + Palbociclib; first compound 0.1 µM) of 0.595. For the same cell line, the relative viability (Obatoclax + Palbociclib; first compound 0.3162 µM) was 0.609 and the relative viability (Obatoclax + Palbociclib; first compound 1 µM) was 0.454.
